Measurements reported in patent US11730714B2, “Compounds for the treatment of neuromuscular disorders” (NMD PHARMA A/S, priority 2017, dated 2023).

Columns and labels:
Assay type in all cases: cell-based
[1] = tested on: isolated rat soleus muscles; assay: Recovery of nerve-stimulated force in isolated rat soleus muscles exposed to 3.5 mM Mg2+; conditions: 9-AC added at 3.5 mM Mg2+; nerve stimulation by suction electrode, 60 Hz
Experimental: (§1) Experiments were performed using rat soleus muscles from either young (4-wk-old) or adult Wistar rats (12-14-week-old). Animal handling, killing and isolation of muscle is described elsewhere All experiments were performed using normal Krebs-Ringer bicarbonate solution (NKR). In solutions with elevated Mg^2+, MgCl2 was added to NKR-solution causing minor increases in osmolarity and ionic strength. In solutions with elevated K^+, 4 mM NaCl was replaced by 4 mM KCl in the NKR.
The aim was to find compounds that by inhibition of CIC-1 channels can recover nerve-stimulated force under conditions of fatigue including conditions where fatigue is caused by compromised neuromuscular transmission. Neuromuscular transmission dysfunction can develop because of both pre- and/or post-synaptic complications in connection with a disorder or as part of neuromuscular blockade during/after surgery. In the initial series of drug testing, experiments were performed with isolated muscles in the presence of sub-maximal ACh receptor antagonist tubocurarine. […] To mimic conditions with pre-synaptic complication (Lambert Eaton syndrome, motor neuron disorder, polyneuropathy) the intact nerve-muscle preparations were incubated at elevated extracellular Mg^2+, which is known to suppress release of ACh from nerve terminals of motor neurons.

[2] = tested on: isolated rat soleus muscles; assay: Recovery of nerve-stimulated force in isolated rat soleus muscles exposed to sub-maximal tubocurarine; conditions: 9-AC added after tubocurarine; nerve stimulation by suction electrode, 60 Hz
Experimental: as §1
In all contraction experiments, isometric force production was determined and force produced during contractions was quantified by measuring the integral of the force response (AUC). Stimulation and force recordings have been described elsewhere. […] In these latter experiments, extracellular recordings of action potentials (M-waves) could be measured without temporal overlap with stimulation artefacts.
The aim was to find compounds that by inhibition of CIC-1 channels can recover nerve-stimulated force under conditions of fatigue including conditions where fatigue is caused by compromised neuromuscular transmission. Neuromuscular transmission dysfunction can develop because of both pre- and/or post-synaptic complications in connection with a disorder or as part of neuromuscular blockade during/after surgery. In the initial series of drug testing, experiments were performed with isolated muscles in the presence of sub-maximal ACh receptor antagonist tubocurarine. Since the inclusion of tubocurarine caused a partial loss of neuromuscular transmission this experiment mimics the conditions in myasthenia gravis and neuromuscular blockade. To mimic conditions with pre-synaptic complication (Lambert Eaton syndrome, motor neuron disorder, polyneuropathy) the intact nerve-muscle preparations were incubated at elevated extracellular Mg^2+, which is known to suppress release of ACh from nerve terminals of motor neurons.
The experiments also illustrate that field stimulation of the entire nerve-muscle preparation selectively activates the motor nerve when short-duration pulses (0.02 vs 0.2 ms) were used. In FIG. 1A the preparation was stimulated either via field stimulation or via nerve-stimulation using a suction electrode. With the suction electrode only the nerve could be stimulated. When exposed to a submaximal concentration of the ACh receptor antagonist tubocurarine (0.2 μM) a clear drop in peak force and a further decline (or fade) in force during the stimulation developed. This drop in force clearly reflected compromised neuromuscular transmission, as the decline in peak force and fading were not seen with direct stimulation of the muscle. […] Thus, loss of M-wave and force with tubocurarine reflected partial blockade of neuromuscular function. Such fading of force and M-waves during stimulation represent clinical hallmarks of both myasthenia gravis and neuromuscular blockade in connection with surgery. In FIG. 1B, observations with normal (0.2 ms) and short-duration (0.02 ms) pulses have been compared. It can be seen that only with short-duration pulses did tubocurarine cause a decline in peak force and fading (FIG. 1B). This confirms that short-duration pulses in field stimulation could be used as specific nerve-stimulation. […] Elevated extracellular Mg^2+ could thus be used to partially block neuromuscular transmission and thus be used as a model of conditions with compromised pre-synaptic function (Lambert Eaton syndrome, amyotrophic lateral sclerosis, spinal muscular atrophy). […]

isolated rat muscle = assay: Measurement of force in an in vitro model: isolated rat soleus nerve-muscle preparation, 115 nM tubocurarine; conditions: 50 μM compound after 90 min in tubocurarine
Experimental: FIGS. 12A-12B. […] Force traces from a representative muscle stimulated to contract in 1) control condition before addition of neuromuscular blocking agent, 2) the force response to stimulation after 90 minutes incubation with Tubocurarine. […] The traces presented in FIG. 12A (1, 2, 3), correspond to the dotted lines in FIG. 12B, respectively.
Recovery of force is quantified as the percentage of the force prior to tubocurarine that is recovered by the compound.
The current invention relates to compounds that inhibit CIC-1 ion channels and increase muscle excitability and thereby improve muscle function in clinical conditions where muscle activation is failing. Such conditions result in loss of contractile function of skeletal muscle, weakness and excessive fatigue. […]
Experimentally, soleus muscles from 4-5 wk old rats were isolated with the motor nerve remaining attached. […] Stimulation of the motor nerve led to activation of the muscle fibres and ensuing force production that was recorded.
After mounting the nerve-muscle preparation in the experimental setup, the contractile function of the muscle was initially assessed under the control conditions (FIG. 2A). […] To quantify the ability of the compound to restore force the percentage of the initial force that was restored was determined after 40 mins of compound exposure (FIG. 2B) and the point increase is reported in Table 8.

| Structure (SMILES) | recovery of force and M-wave signal [1] | recovery of force and M-wave signal [2] | recovery of force (in words) (isolated rat muscle) |
| --- | --- | --- | --- |
| O=C(O)c1c2ccccc2cc2ccccc12 [Compound 9-AC, 9-anthracenecarboxylic acid, reference compound] | marked recovery of both force and M-wave signal | marked recovery of both force and M-wave signal |  |
| O=C(O)[C@H](CF)Oc1ccc(Br)cc1F [Compound A-19, (2R)-2-(4-bromo-2-fluorophenoxy)-3-fluoropropanoic acid] |  |  | subsequently recovered |
